We go through 9 compounds from PubChem BioAssay AID1259411 (Chemical Carcinogenesis Research Information System (CCRIS), 2018).

The source made the active and inactive calls. No rule for the calls is given here.

The data set deals with rodent carcinogenicity bioassays, tumor incidence. The experiment in a line: CCRIS carcinogenicity studies. In outline: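 Archive of carcinogenicity, mutagenicity, tumor promotion and tumor inhibition results drawn from journals, NCI reports and other sources, expert-reviewed; covers 1985-2011 and is no longer updated.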

Turning to `O=[N+]([O-])c1ccccc1`, the carcinogen call (Species: MOUSE, Strain/Sex: B6C3F1/FEMALE, Route: INHALATION, Dose: 0, 5, 25, 50 PPM 6 HR/D 5 D/WK FOR 2 YR (STUDY DURATION: 2 YR), Dose: 0, 5, 25, 50 PPM 6 HR/D 5 D/WK FOR 2 YR (STUDY DURATION: 2 YR), Tumor Site: Type of Lesion: MAMMARY GLAND: ADENOCARCINOMA) is “active; positive”; the carcinogen call (Species: MOUSE, Strain/Sex: B6C3F1/MALE, Route: INHALATION, Dose: 0, 5, 25, 50 PPM 6 HR/D 5 D/WK FOR 2 YR (STUDY DURATION: 2 YR), Dose: 0, 5, 25, 50 PPM 6 HR/D 5 D/WK FOR 2 YR (STUDY DURATION: 2 YR), Tumor Site: Type of Lesion: LUNG: ADENOMA, ADENOMA OR CARCINOMA, THYROID GLAND: FOLLICULAR CELL ADENOMA) was “active; positive”; the carcinogen call (Species: RAT, Strain/Sex: F344/FEMALE, Route: INHALATION, Dose: 0, 1, 5, 25 PPM 6 HR/D 5 D/WK FOR 2 YR (STUDY DURATION: 2 YR), Dose: 0, 1, 5, 25 PPM 6 HR/D 5 D/WK FOR 2 YR (STUDY DURATION: 2 YR), Tumor Site: Type of Lesion: UTERUS: ENDOMETRIAL STROMAL POLYP) was “active; positive”; the carcinogen call (Species: RAT, Strain/Sex: F344/MALE, Route: INHALATION, Dose: 0, 1, 5, 25 PPM 6 HR/D 5 D/WK FOR 2 YR (STUDY DURATION: 2 YR), Dose: 0, 1, 5, 25 PPM 6 HR/D 5 D/WK FOR 2 YR (STUDY DURATION: 2 YR), Tumor Site: Type of Lesion: LIVER: HEPATOCELLULAR ADENOMA, HEPATOCELLULAR ADENOMA OR CARCINOMA, KIDNEY: TUBULAR ADENOMA, TUBULAR ADENOMA OR CARCINOM) was “active; positive”; the carcinogen call (Species: RAT, Strain/Sex: STRAIN-CD/MALE, Route: INHALATION, Dose: 0, 1, 5, 25 PPM 6 HR/D 5 D/WK FOR 2 YR (STUDY DURATION: 2 YR), Dose: 0, 1, 5, 25 PPM 6 HR/D 5 D/WK FOR 2 YR (STUDY DURATION: 2 YR), Tumor Site: Type of Lesion: LIVER: HEPATOCELLULAR ADENOMA, HEPATOCELLULAR ADENOMA OR CARCINOMA) is “active; positive”.

In the case of `Cc1c(N)nc([C@H](CC(N)=O)NC[C@H](N)C(N)=O)nc1C(=O)N[C@H](C(=O)N[C@H](C)[C@@H](O)[C@H](C)C(=O)N[C@H](C(=O)NCCc1nc(-c2nc(C(=O)NCCCN[C@@H](C)c3ccccc3)cs2)cs1)[C@@H](C)O)[C@@H](O[C@@H]1O[C@@H](CO)[C@@H](O)[C@H](O)[C@@H]1O[C@H]1O[C@H](CO)[C@@H](O)[C@H](OC(N)=O)[C@@H]1O)c1cnc[nH]1`, the carcinogen call is “active; positive” (Species: RAT, Strain/Sex: SPRAGUE-DAWLEY/FEMALE, Route: SUBCUTANEOUS, Dose: 0, 0.32, 0.63, 1.25, 2.50, 5.0 MG/KG IN SALINE 1/WK FOR 10 WK THEN 1/2 WK FOR 12 WK, 19 WK OR LIFETIME (STUDY DURATION:, Dose: 0, 0.32, 0.63, 1.25, 2.50, 5.0 MG/KG IN SALINE 1/WK FOR 10 WK THEN 1/2 WK FOR 12 WK, 19 WK OR LIFETIME (STUDY DURATION:, Tumor Site: Type of Lesion: KIDNEY: MALIGNANT OR BENIGN TUMOR, INJECTION SITE: MALIGNANT TUMOR) and “active; positive” (Species: RAT, Strain/Sex: SPRAGUE-DAWLEY/MALE, Route: SUBCUTANEOUS, Dose: 0, 0.32, 0.63, 1.25, 2.50, 5.0 MG/KG IN SALINE 1/WK FOR 10 WK THEN 1/2 WK FOR 12 WK, 19 WK OR LIFETIME (STUDY DURATION:, Dose: 0, 0.32, 0.63, 1.25, 2.50, 5.0 MG/KG IN SALINE 1/WK FOR 10 WK THEN 1/2 WK FOR 12 WK, 19 WK OR LIFETIME (STUDY DURATION:, Tumor Site: Type of Lesion: KIDNEY: MALIGNANT OR BENIGN TUMOR, INJECTION SITE: MALIGNANT TUMOR).

As for `O[C@@H]1C=CC=C[C@H]1O`, the carcinogen call reads like this: (Species: MOUSE, Strain/Sex: SWISS/FEMALE, Route: INTRAPERITONEAL, Dose: 0, 10, 50 UMOL ADMINISTERED AS 3 UNEQUAL DOSES (1/7, 2/7, AND 4/7 OF THE TOTAL DOSE) OVER A 2-WK PERIOD (STUDY DURATION:, Dose: 0, 10, 50 UMOL ADMINISTERED AS 3 UNEQUAL DOSES (1/7, 2/7, AND 4/7 OF THE TOTAL DOSE) OVER A 2-WK PERIOD (STUDY DURATION:) “inactive; negative”; (Species: MOUSE, Strain/Sex: SWISS/MALE, Route: INTRAPERITONEAL, Dose: 0, 10, 50 UMOL ADMINISTERED AS 3 UNEQUAL DOSES (1/7, 2/7, AND 4/7 OF THE TOTAL DOSE) OVER A 2-WK PERIOD (STUDY DURATION:, Dose: 0, 10, 50 UMOL ADMINISTERED AS 3 UNEQUAL DOSES (1/7, 2/7, AND 4/7 OF THE TOTAL DOSE) OVER A 2-WK PERIOD (STUDY DURATION:) “inactive; negative”.

For the compound `CCn1nc(C)c2c1C(c1ccccc1)=NCC(=O)N2`, the carcinogen call is “inactive; negative” (Species: MOUSE, Strain/Sex: CD-1/FEMALE, Route: ORAL, Dose: 0, 15, 150, MG/KG IN DIET FOR 78 WK (STUDY DURATION: 78 WK), Dose: 0, 15, 150, MG/KG IN DIET FOR 78 WK (STUDY DURATION: 78 WK)); “active; positive” (Species: MOUSE, Strain/Sex: CD-1/MALE, Route: ORAL, Dose: 0, 15, 150, MG/KG IN DIET FOR 78 WK (STUDY DURATION: 78 WK), Dose: 0, 15, 150, MG/KG IN DIET FOR 78 WK (STUDY DURATION: 78 WK), Tumor Site: Type of Lesion: LIVER: ADENOMA); “inactive; negative” (Species: RAT, Strain/Sex: CD/FEMALE, Route: ORAL, Dose: 0, 15, 150 MG/KG IN DIET FOR 104 WK (STUDY DURATION: 104 WK), Dose: 0, 15, 150 MG/KG IN DIET FOR 104 WK (STUDY DURATION: 104 WK)); “inactive; negative” (Species: RAT, Strain/Sex: CD/MALE, Route: ORAL, Dose: 0, 15, 150 MG/KG IN DIET FOR 104 WK (STUDY DURATION: 104 WK), Dose: 0, 15, 150 MG/KG IN DIET FOR 104 WK (STUDY DURATION: 104 WK)).

On to `CNC(=O)c1c(N(C)N=O)ncn1C`, for which, where the note is “Species: RAT, Strain/Sex: BD-IX/MALE, FEMALE, Route: ORAL, Dose: 0, 3, 5, 15 MG/KG/D IN DRINKING WATER 5D/WK FOR DURATION OF STUDY (STUDY DURATION: LIFETIME), Dose: 0, 3, 5, 15 MG/KG/D IN DRINKING WATER 5D/WK FOR DURATION OF STUDY (STUDY DURATION: LIFETIME), Tumor Site: Type of Lesion: NASAL CAVITY: TUMOR”, the carcinogen call was “active; positive”.

On to `O=Cc1ccccc1`, for which the carcinogen call runs as follows: (Species: MOUSE, Strain/Sex: B6C3F1/FEMALE, Route: GAVAGE, Dose: 0, 300, 600 MG/KG IN CORN OIL 5 D/WK FOR 103 WK (STUDY DURATION: 104 WK), Dose: 0, 300, 600 MG/KG IN CORN OIL 5 D/WK FOR 103 WK (STUDY DURATION: 104 WK), Tumor Site: Type of Lesion: FORESTOMACH: SQUAMOUS PAPILLOMA) “active; positive”; (Species: MOUSE, Strain/Sex: B6C3F1/MALE, Route: GAVAGE, Dose: 0, 200, 400 MG/KG IN CORN OIL 5 D/WK FOR 104 WK (STUDY DURATION: 105 WK), Dose: 0, 200, 400 MG/KG IN CORN OIL 5 D/WK FOR 104 WK (STUDY DURATION: 105 WK), Tumor Site: Type of Lesion: FORESTOMACH: SQUAMOUS PAPILLOMA) “active; positive”; (Species: RAT, Strain/Sex: F344/FEMALE, Route: GAVAGE, Dose: 0, 200, 400 MG/KG IN CORN OIL 5 D/WK FOR 103 WK (STUDY DURATION: 105 WK), Dose: 0, 200, 400 MG/KG IN CORN OIL 5 D/WK FOR 103 WK (STUDY DURATION: 105 WK)) “inactive; negative”; (Species: RAT, Strain/Sex: F344/MALE, Route: GAVAGE, Dose: 0, 200, 400 MG/KG IN CORN OIL 5 D/WK FOR 103 WK (STUDY DURATION: 105 WK), Dose: 0, 200, 400 MG/KG IN CORN OIL 5 D/WK FOR 103 WK (STUDY DURATION: 105 WK)) “inactive; negative”.

For `C/C(=C(\CCOC(=O)c1ccccc1)SC(=O)c1ccccc1)N(C=O)Cc1cnc(C)nc1N`, the carcinogen call is, setting by setting: (Species: RAT, Strain/Sex: SPRAGUE-DAWLEY/FEMALE, Route: ORAL, Dose: 0, 1000, 10000 PPM IN DIET FOR DURATION OF STUDY (STUDY DURATION: 105 WK), Dose: 0, 1000, 10000 PPM IN DIET FOR DURATION OF STUDY (STUDY DURATION: 105 WK)) “inactive; negative”; (Species: RAT, Strain/Sex: SPRAGUE-DAWLEY/MALE, Route: ORAL, Dose: 0, 1000, 10000 PPM IN DIET FOR DURATION OF STUDY (STUDY DURATION: 105 WK), Dose: 0, 1000, 10000 PPM IN DIET FOR DURATION OF STUDY (STUDY DURATION: 105 WK)) “inactive; negative”.

Take `O=[N+]([O-])O`: the carcinogen call (Species: RAT, Strain/Sex: F344/MALE,FEMALE, Route: ORAL, Dose: 2.5, 5% IN DRINKING WATER FOR 2 YR) is “inactive; negative”.

Consider `c1ccc2cc3c(cc2c1)-c1cccc2cccc-3c12`, for which the carcinogen call was “active; positive” (Species: MOUSE, Route: DERMAL, Tumor Site: Type of Lesion: INTEGUMENTARY SYSTEM (SKIN)) and “active; positive” (Species: RAT, Strain/Sex: OSBORNE-MENDEL/FEMALE, Route: LUNG IMPLANT, Dose: 0, 0.16, 0.83, 4.15 MG IN BEESWAX/TRIOCTANOIN (STUDY DURATION: LIFETIME), Dose: 0, 0.16, 0.83, 4.15 MG IN BEESWAX/TRIOCTANOIN (STUDY DURATION: LIFETIME), Tumor Site: Type of Lesion: LUNG: EPIDERMOID CARCINOMA).
